Our source for the IC50 and Activity values is ChEMBL document CHEMBL1125537, “3'-Azido-3',5'-dideoxythymidine-5'-methylphosphonic acid diphosphate: synthesis and HIV-1 reverse transcriptase inhibition” (J Med Chem, 1992).

Active and inactive are the calls of the source. The calls are words filed in the database; no cut-off is given here.

Assay [1] has as its system MT4. Nature of the assay: Average antiviral activity against HIV-1 in MT-4 cells using cell-protection assay. The format is functional, cell-based. The settings on record: Homo sapiens.
Assay [2] has as its system MT4. Nature of the assay: antiviral activity against HIV-1 in MT-4 cells using cell-protection assay at a concentration of 200 uM. The assay is classed as functional, cell-based. The settings on record: Homo sapiens.

Usually IC50 stands for the concentration at which inhibition is half-maximal. Low readings indicate greater potency in that assay, high ones weaker potency in that assay.

As for `Cc1cn([C@H]2C[C@H](N=[N+]=[N-])[C@@H](CO)O2)c(=O)[nH]c1=O` [ZIDOVUDINE], inhibition in assay [1] was half-maximal at 60 nM (IC50). For the compound `Cc1cn(C2CC(N=[N+]=[N-])C(CCP(=O)(O)O)O2)c(=O)[nH]c1=O` (stereo not given), the result in assay [2] was inactive.

Turning to `Cc1cn(C2CC(N=[N+]=[N-])C(/C=C/P(=O)(O)Oc3ccccc3)O2)c(=O)[nH]c1=O` (stereo not given), the result in assay [2] was inactive. The same measure, in the same setting: the same measure for `Cc1cn(C2CC(N=[N+]=[N-])C(/C=C/P(=O)(O)O)O2)c(=O)[nH]c1=O` (stereo not given): “inactive”; for `Cc1cn(C2CC(N=[N+]=[N-])C(CCP(=O)(O)Oc3ccccc3)O2)c(=O)[nH]c1=O` (stereo not given): “inactive”.
